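Values below derive from 48-hour exposures of cells grown in 96-well plates, with endpoints linearly interpolated between the two concentrations bracketing the appropriate inhibition level. Abbreviation: GI50, concentration required for 50% inhibition of growth. TGI: total growth inhibition.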

Some test systems named below: T-47D breast; ACHN renal; HL-60(TB) leukemia; COLO 205 colon; SK-MEL-5 melanoma; M14 melanoma; UO-31 renal.
Experiment in all cases: NCI tumour cell line growth inhibition, 48 h

As for `CC(C)CCN=C(N)c1ccc(N2CCN(c3ccc(C(N)=NCCC(C)C)cc3)CC2)cc1`, the GI50 in the experiment on T-47D breast was 9.54 µM; in the experiment with ACHN renal it was 56.8 µM; in the experiment on HL-60(TB) leukemia it was 4.74 µM; in the experiment on COLO 205 colon it was 8.9 µM; with SK-MEL-5 melanoma, 3.06 µM; in the experiment with M14 melanoma it was 11.7 µM. Moreover, the GI50 in the experiment on UO-31 renal was 39.5 µM. The TGI was 57.9 µM in the experiment on T-47D breast; more than 100 µM with ACHN renal; 26.1 µM with HL-60(TB) leukemia; more than 100 µM in the experiment with COLO 205 colon; 7.97 µM with SK-MEL-5 melanoma; 29.6 µM in the experiment with M14 melanoma. Moreover, the TGI in the experiment with UO-31 renal is more than 100 µM.

On to `O=[N+]([O-])c1c(Br)sc(Br)c1[N+](=O)[O-]`, for which the GI50 with T-47D breast is 1.84 µM; with ACHN renal it was 1.64 µM; in the experiment on HL-60(TB) leukemia, 2.4 µM; in the experiment with COLO 205 colon, 1.57 µM; in the experiment on SK-MEL-5 melanoma it was 4.88 µM; in the experiment on UO-31 renal, 1.59 µM. The TGI was 4.38 µM with T-47D breast; 3.19 µM with ACHN renal; 6.65 µM in the experiment with HL-60(TB) leukemia; 3.38 µM with COLO 205 colon; 17.2 µM with SK-MEL-5 melanoma; 3.55 µM in the experiment with UO-31 renal.

Consider `Nc1nc(-c2ccc(F)cc2)c(-c2ccc3ncccc3n2)s1`, for which the GI50 in the experiment on T-47D breast was 4.32 µM; in the experiment with ACHN renal, 8.33 µM; with HL-60(TB) leukemia it was more than 25 µM; with COLO 205 colon, more than 25 µM; with SK-MEL-5 melanoma it was 13.1 µM; in the experiment with M14 melanoma, more than 25 µM. For the same compound, the GI50 in the experiment on UO-31 renal was 4.68 µM. Further, the TGI in the experiment with T-47D breast, with ACHN renal, in the experiment on HL-60(TB) leukemia, in the experiment with COLO 205 colon, with SK-MEL-5 melanoma and in the experiment with M14 melanoma was more than 25 µM each time. The compound also gave a TGI with UO-31 renal of more than 25 µM.

For the compound `Fc1ccc(Nc2nc3nonc3nc2Nc2ccc(F)cc2)cc1`, the GI50 was 0.221 µM in the experiment on T-47D breast; 0.399 µM in the experiment on ACHN renal; 0.342 µM with HL-60(TB) leukemia; 0.342 µM in the experiment on COLO 205 colon; 0.229 µM in the experiment on SK-MEL-5 melanoma; 0.586 µM with M14 melanoma. Further, the GI50 in the experiment with UO-31 renal is 0.285 µM. Moreover, the TGI with T-47D breast was 0.775 µM; in the experiment on ACHN renal it was 7.09 µM; in the experiment with HL-60(TB) leukemia it was 1.5 µM; in the experiment on COLO 205 colon, 1.43 µM; with SK-MEL-5 melanoma, 0.702 µM; with M14 melanoma, 10.5 µM. In addition, the TGI with UO-31 renal is 1.33 µM.

In the case of `COc1ccc(Cn2cc3c(c2-c2ccc(OC)cc2)CCc2cnoc2-3)cc1`, the GI50 in the experiment with T-47D breast is 0.533 µM; in the experiment with ACHN renal it was 0.892 µM; in the experiment on HL-60(TB) leukemia, 0.282 µM; in the experiment on COLO 205 colon it was 0.296 µM; in the experiment on SK-MEL-5 melanoma, 0.343 µM; in the experiment with M14 melanoma, 0.404 µM. In addition, the GI50 in the experiment on UO-31 renal is 0.797 µM. The TGI is more than 100 µM in the experiment on T-47D breast; more than 100 µM in the experiment on ACHN renal; 1.17 µM with HL-60(TB) leukemia; 0.815 µM with COLO 205 colon; 4.71 µM with SK-MEL-5 melanoma; more than 33.2 µM with M14 melanoma. Also, in the experiment on UO-31 renal, the TGI was more than 100 µM.

Turning to `CCCCS(=O)(=O)CCC(N)C(=O)O` (stereo not drawn), the TGI in the experiment on T-47D breast, in the experiment on ACHN renal, in the experiment on HL-60(TB) leukemia, with COLO 205 colon, with SK-MEL-5 melanoma and in the experiment with M14 melanoma was more than 100 µM in each case. In the experiment with UO-31 renal, the TGI was more than 100 µM.

For the compound `CC[C@@H](C(=O)[C@@H](C)[C@@H](O)[C@H](C)[C@@H]1O[C@@H]([C@@H](CC)C(=O)N(CC)CC)CC[C@@H]1C)C1O[C@]2(C=CC(=O)[C@]3(CC[C@@](C)([C@H]4CC[C@](O)(CC)[C@H](C)O4)O3)O2)[C@H](C)C[C@@H]1C` (stereo partly drawn), the GI50 in the experiment on T-47D breast was 2.59 µM; with ACHN renal, 2.16 µM; in the experiment with HL-60(TB) leukemia, 2.16 µM; in the experiment on COLO 205 colon, 2.35 µM; with SK-MEL-5 melanoma, 1.69 µM; in the experiment on UO-31 renal, 2.42 µM. Moreover, the TGI is 9.44 µM in the experiment with T-47D breast; 5.19 µM in the experiment with ACHN renal; 4.95 µM in the experiment with HL-60(TB) leukemia; 5.4 µM with COLO 205 colon; 3.09 µM with SK-MEL-5 melanoma; 10.2 µM with UO-31 renal.

As to `COc1cc(O)c(C(=O)/C=C/c2ccc(O)cc2)c(O)c1[C@@H]1C[C@H](CCc2ccc(O)cc2)O[C@H](c2ccc(O)cc2)C1`, the GI50 in the experiment on T-47D breast is 3.12 µM; with ACHN renal it was 3.31 µM; with HL-60(TB) leukemia it was 2.02 µM; in the experiment on COLO 205 colon, 2.72 µM; in the experiment on SK-MEL-5 melanoma it was 3.7 µM; with M14 melanoma, 3.48 µM. Further, the GI50 with UO-31 renal is 3.17 µM. Further, the TGI with T-47D breast amounted to 17.5 µM; in the experiment on ACHN renal it was 10.9 µM; in the experiment with HL-60(TB) leukemia it was 3.91 µM; with COLO 205 colon it was 8.44 µM; with SK-MEL-5 melanoma, 12.8 µM; in the experiment on M14 melanoma, 12.2 µM. The TGI in the experiment on UO-31 renal is 14.1 µM.

On to `CCC1CCc2nc3sc(C(=O)Nc4cccc(F)c4)c(N)c3cc2C1` (stereo not drawn), for which the GI50 is more than 100 µM with T-47D breast; more than 100 µM in the experiment with ACHN renal; 0.343 µM in the experiment on HL-60(TB) leukemia; 51.8 µM in the experiment on COLO 205 colon; 0.386 µM with SK-MEL-5 melanoma; 0.402 µM in the experiment on M14 melanoma. Besides, in the experiment with UO-31 renal, the GI50 is more than 100 µM. The TGI with T-47D breast, in the experiment on ACHN renal, in the experiment with HL-60(TB) leukemia, in the experiment on COLO 205 colon, in the experiment on SK-MEL-5 melanoma and with M14 melanoma was more than 100 µM in each case. In addition, the TGI in the experiment on UO-31 renal was more than 100 µM.

As for `COc1cc(/C=C/C(=O)c2ccc(NC(=O)CN3CCN(c4cc5c(cc4F)c(=O)c(C(=O)O)cn5C4CC4)CC3)cc2)cc(OC)c1OC`, the GI50 with T-47D breast is 1.67 µM; in the experiment with ACHN renal it was 0.692 µM; in the experiment on HL-60(TB) leukemia it was 1.75 µM; with COLO 205 colon it was 1.34 µM; with SK-MEL-5 melanoma, 0.871 µM; in the experiment with M14 melanoma, 1.15 µM. Further, the GI50 in the experiment with UO-31 renal was 1.38 µM. Besides, the TGI in the experiment with T-47D breast was more than 57 µM; in the experiment with ACHN renal, more than 26.6 µM; in the experiment with HL-60(TB) leukemia, more than 29.8 µM; with COLO 205 colon, 8.11 µM; with SK-MEL-5 melanoma, 4.39 µM; in the experiment with M14 melanoma, 13.6 µM. In the experiment with UO-31 renal, this compound displayed a TGI of 7.78 µM.

As for `COc1cc(C2=C(C#Cc3ccccc3)COC2=O)cc(OC)c1OC`, the GI50 in the experiment on T-47D breast is 13.3 µM; in the experiment with ACHN renal, 1.8 µM; with HL-60(TB) leukemia, 0.246 µM; with COLO 205 colon, 4.89 µM; in the experiment with SK-MEL-5 melanoma, 2.56 µM; in the experiment on M14 melanoma, 1.77 µM. Further, in the experiment on UO-31 renal, the GI50 was 3.6 µM. Also, the TGI is more than 100 µM in the experiment with T-47D breast; 8.16 µM in the experiment with ACHN renal; 3.36 µM in the experiment with HL-60(TB) leukemia; more than 94.6 µM in the experiment on COLO 205 colon; 20.1 µM in the experiment with SK-MEL-5 melanoma; 11.7 µM in the experiment on M14 melanoma. In the experiment on UO-31 renal, this compound yielded a TGI of more than 32.7 µM.

The values are drawn from PubChem BioAssay (NCI).
